Experimental data reported in patent US20120040991A1, “3-AZABICYCLO [4.1.0] HEPTANES USED AS OREXIN ANTAGONISTS” (Glaxo Group Limited, priority 2009, published 2012).

Target: T1, human cloned orexin-2 receptor (Homo sapiens, UniProt O43614)
T1 construct: expressed in transfected cells
T1 sequence (O43614 1-444): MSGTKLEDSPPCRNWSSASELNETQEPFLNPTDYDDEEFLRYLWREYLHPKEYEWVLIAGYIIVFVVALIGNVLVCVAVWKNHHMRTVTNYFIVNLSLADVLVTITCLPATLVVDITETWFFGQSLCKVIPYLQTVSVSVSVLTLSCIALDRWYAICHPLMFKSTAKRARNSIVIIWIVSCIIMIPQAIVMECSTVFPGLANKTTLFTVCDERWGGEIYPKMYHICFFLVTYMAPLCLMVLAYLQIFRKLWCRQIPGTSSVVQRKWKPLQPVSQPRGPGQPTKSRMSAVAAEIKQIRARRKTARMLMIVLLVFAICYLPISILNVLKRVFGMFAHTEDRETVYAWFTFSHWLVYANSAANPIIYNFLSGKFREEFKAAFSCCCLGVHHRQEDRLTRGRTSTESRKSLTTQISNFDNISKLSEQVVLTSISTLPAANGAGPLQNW
Experiment: Determination of antagonist affinity at human Orexin-2 receptor using FLIPR ([Ca2+]i, CHO cells, hOrexin A at EC80)
Assay type: cell-based
Details: functional pKi from IC50 by modified Cheng-Prusoff, read-out: fpKi
Text: Determination of Antagonist Affinity at Human Orexin-1 and 2 Receptors Using FLIPR
Adherent Chinese Hamster Ovary (CHO) cells, stably expressing the recombinant human Orexin-1 or human Orexin-2 receptors or Rat Basophilic Leukaemia Cells (RBL) stably expressing recombinant rat Orexin-1 or rat Orexin-2 receptors were maintained in culture in Alpha Minimum Essential Medium (Gibco/Invitrogen, cat. no.; 22571-020), supplemented with 10% decomplemented foetal bovine serum (Life Technologies, cat. no. 10106-078) and 400 μg/mL Geneticin G418 (Calbiochem, cat. no. 345810). Cells were grown as monolayers under 95%:5% air:CO2 at 37° C. […]
Compounds of the invention were tested in a final assay concentration range from 1.66×10^−5M to 1.58×10^−11M. […] This final concentration of hOrexin A was equivalent to the calculated EC80 for hOrexinA agonist potency in this test system. […]
The loaded cells were then incubated for 10 min at 37° C. with test compound. The plates were then placed into a FLIPR™ (Molecular Devices, UK) to monitor cell fluorescence (λex=488 nm, λEM=540 nm) (Sullivan E, Tucker E M, Dale I L. Measurement of [Ca^2]i using the fluometric imaging plate reader (FLIPR). In: Lambert DG (ed.), Calcium Signaling Protocols. New Jersey: Humana Press, 1999, 125-136). A baseline fluorescence reading was taken over a 5 to 10 second period, and then 10 μL of EC80 hOrexinA solution was added. […]

**Q.** `CCOc1ccc(C)nc1C(=O)N1C[C@@H]2C[C@@H]2C[C@H]1COc1ncc(C(F)(F)F)cn1` [Example E4, (1R,4S,6R)-3-{[3-(ethyloxy)-6-methyl-2-pyridinyl]carbonyl}-4-({[5-(trifluoromethyl)-2-pyrimidinyl]oxy}methyl)-3-azabicyclo[4.1.0]heptane] was tested. Which Ki did it give?
**A.** > 15.8 µM
